Here are results for 4 molecules from patent US6783775B2, “Serum-derived factor inducing cell differentiation and medical uses thereof” (Hadasit Medical Research Services and Development Ltd., priority 1996, dated 2004).

As a reminder, the inhibition is the share of the control response that was lost under treatment.

In experiment [1] the test system is HL-60 cells. In words: Cell proliferation assay (3H-thymidine incorporation) on HL-60 cells. The experiment is classed as cell-based, human. The method, then:
(§1) Cell lines included the human myelomonocytic cells HL-60, GM-CSF-dependent human myelomonocytic cells LK (established in the inventors' laboratory) and the murine monocytic cell line WEHI. Cell lines were maintained by sub-culturing every 3-4 days at 2.5×10^5 cell/ml in either alpha minimal essential or RPMI-1640 media (GIBCO, Grand Island, N.Y.) supplemented with 10-20% fetal calf serum (FCS) (Bio Labs Jerusalem, Israel). The cultures were incubated at 37° C., in a humidified atmosphere of 5% CO2 in air. The concentration of viable cells was determined by the trypan blue exclusion technique. Total cell count was performed using a Coulter counter.
HL-60 or other cells were cultured at 1.3×10^5/ml in 24-well dish and medium containing 0.5% heat-inactivated FCS and various dilutions of the tested fractions. DNA synthesis was determined on day 4 by incorporation of ^3[H]-thymidine ([…]/150 μl) (5 mCi/mmol, ICN Radiochemicals, Irvine, Calif.) added 12 hrs before harvesting. One unit of SDF was defined as the amount per milliliter required for 50% decrease in ^3H-thymidine incorporation.
In general terms: Incorporation of labelled thymidine or its analogues reports DNA synthesis.

For experiment [2], the system named is normal hemopoietic progenitor cells. In words: Indirect cloning (two-phase culture) of normal hemopoietic progenitors. The experiment is classed as cell-based, human. The settings on record: indirect cloning system, control (0) 70. The method, then:
Indirect cloning: Cells were prepared as described for direct cloning, were first incubated for several days in liquid culture supplemented with or without the indicated growth factors or tested fraction, then washed. and cloned in semi-solid medium as described above.
Expansion of normal hemopoietic progenitors—In order to test the effect of SDF on early and late normal hemopoietic progenitors a two-phase culture procedure was employed:
Phase 1 (Expansion phase)—Light density BM or PB cells were incubated for several days in liquid medium supplemented with SDF.
Phase 2 (Clonal phase)—At the end of phase 1, cells were harvested, washed and recultured in either semi solid medium or in liquid medium supplemented with either recombinant human late growth/differentiation factors like GM-CSF, Epo, or 5637-CM, which contains GM, G-CSF. IL-6, IL-1 and other cytokines, but not Epo. […] The lineage specific differentiation of the colonies in Phase 2 depended on the late factor present, e.g., Epo for CFU-E and GM-CSF for CFU-GM.

Experiment [3] concerns HL-60 cells. In words: Leukemic cell cloning (colony formation) of HL-60 cells in semi-solid medium. The settings on record: HL-60 600 cells/ml; 8 days; mean of two experiments; G-CSF 1000 U/ml, IL-1 100 U/ml. The experiment is classed as cell-based, human. The method, then: as §1
(§2) 300-1000 cells/ml were seeded in semi-solid medium composed of 0.83% methyl-cellulose (Fisher Scientific company, Fair Lawn, N.J.) or 0.3% Bacto agar (Difco laboratories, Detroit, Mich.) in alpha medium supplemented with 10% FCS. Colony number was scored with an inverted microscope on day 8. In order to determine cellular maturation, single colonies were picked up with a fine capillary tube, smeared on a glass slide and stained.

Another experiment has as its system WEHI cells. In words: Leukemic cell cloning (colony formation) of WEHI cells in semi-solid medium. Format: cell-based, murine. The settings on record: WEHI 300 cells/ml; 8 days; mean of two experiments; G-CSF 100 U/ml, IL-1 100 U/ml. The method, then: as §1, §2

`O=C(O)c1cc(C(=O)O)c2c(n1)C(=O)C(=O)c1cc(C(=O)O)[nH]c1-2` [PQQ, pyrroloquinoline quinone]: the inhibition at 0.01 µg/mL in the experiment with HL-60 cells [1] (Homo sapiens, HL-60, PQQ concentration 0.01 μg/ml, HL60 cells, read-out: Growth inhibition (%)) stood at 0%. In addition, in the experiment on HL-60 cells [1] (Homo sapiens, HL-60, PQQ concentration 0.05 μg/ml, HL60 cells, read-out: Growth inhibition (%)), the inhibition at 0.05 µg/mL was 30%. The inhibition at 0.1 µg/mL in the experiment on HL-60 cells [1] (Homo sapiens, HL-60, PQQ concentration 0.1 μg/ml, HL60 cells, read-out: Growth inhibition (%)) is 30%. In the experiment with HL-60 cells [1] (Homo sapiens, HL-60, PQQ concentration 0.5 μg/ml, HL60 cells, read-out: Growth inhibition (%)), the inhibition at 0.5 µg/mL was determined as 40%. Besides, in the experiment with HL-60 cells [1] (Homo sapiens, HL-60, PQQ concentration 1 μg/ml, HL60 cells, read-out: Growth inhibition (%)), the inhibition at 1 µg/mL is 40%. For the same molecule, the inhibition at 5 µg/mL in the experiment on HL-60 cells [1] (Homo sapiens, HL-60, PQQ concentration 5 μg/ml, HL60 cells, read-out: Growth inhibition (%)) was 60%. Moreover, the “Colony No.” value is 89 in experiment [2] (PQQ concentration 0.01 μg/ml), 109 in experiment [2] (PQQ concentration 0.1 μg/ml), 130 in experiment [2] (PQQ concentration 1 μg/ml) and 148 in experiment [2] (PQQ concentration 5 μg/ml).

In the case of `CC1=C(/C=C/C(C)=C/C=C/C(C)=C/C(=O)O)C(C)(C)CCC1` [Retinoic acid], in the experiment with HL-60 cells [3], the “Colonies: Diffused (fully differentiated)” value is reported as 114, the “Colonies: Partially diffused (partially differentiated)” value (“Colonies … (partially differentiated)” below) was determined as 49, the “Colonies: Tight (undifferentiated)” value was 0 and the “Colonies: Total” value is reported as 163.

B1: G-CSF: growth factor (colony stimulating factor) used for comparison (protein, UniProt P09919 31-207, looked up)
Granulocyte …: TPLGPASSLPQSFLLKCLEQVRKIQGDGAALQEKLVSECATYKLCHPEELVLLGHSLGIPWAPLSSCPSQALQLAGCLSQLHSGLFLYQGLLQALEGISPELGPTLDTLQLDVADFATTIWQQMEELGMAPALQPTQGAMPAFASAFQRRAGGVLVASHLQSFLEVSYRVLRHLAQP
For the molecule B1, in the experiment with WEHI cells, the “Colonies: Diffused (fully differentiated)” value is given as 51, the “Colonies … (partially differentiated)” value is reported as 55, the “Colonies: Tight (undifferentiated)” value turned out to be 25 and the “Colonies: Total” value amounted to 132. Besides, in the experiment with HL-60 cells [3], the “Colonies: Diffused (fully differentiated)” value was found to be 0, the “Colonies … (partially differentiated)” value was found to be 12, the “Colonies: Tight (undifferentiated)” value is given as 325 and the “Colonies: Total” value was 337.

B2: ceruloplasmin (protein, UniProt P00450 20-1065, looked up)
Ceruloplasmin: KEKHYYIGIIETTWDYASDHGEKKLISVDTEHSNIYLQNGPDRIGRLYKKALYLQYTDETFRTTIEKPVWLGFLGPIIKAETGDKVYVHLKNLASRPYTFHSHGITYYKEHEGAIYPDNTTDFQRADDKVYPGEQYTYMLLATEEQSPGEGDGNCVTRIYHSHIDAPKDIASGLIGPLIICKKDSLDKEKEKHIDREFVVMFSVVDENFSWYLEDNIKTYCSEPEKVDKDNEDFQESNRMYSVNGYTFGSLPGLSMCAEDRVKWYLFGMGNEVDVHAAFFHGQALTNKNYRIDTINLFPATLFDAYMVAQNPGEWMLSCQNLNHLKAGLQAFFQVQECNKSSSKDNIRGKHVRHYYIAAEEIIWNYAPSGIDIFTKENLTAPGSDSAVFFEQGTTRIGGSYKKLVYREYTDASFTNRKERGPEEEHLGILGPVIWAEVGDTIRVTFHNKGAYPLSIEPIGVRFNKNNEGTYYSPNYNPQSRSVPPSASHVAPTETFTYEWTVPKEVGPTNADPVCLAKMYYSAVEPTKDIFTGLIGPMKICKKGSLHANGRQKDVDKEFYLFPTVFDENESLLLEDNIRMFTTAPDQVDKEDEDFQESNKMHSMNGFMYGNQPGLTMCKGDSVVWYLFSAGNEADVHGIYFSGNTYLWRGERRDTANLFPQTSLTLHMWPDTEGTFNVECLTTDHYTGGMKQKYTVNQCRRQSEDSTFYLGERTYYIAAVEVEWDYSPQREWEKELHHLQEQNVSNAFLDKGEFYIGSKYKKVVYRQYTDSTFRVPVERKAEEEHLGILGPQLHADVGDKVKIIFKNMATRPYSIHAHGVQTESSTVTPTLPGETLTYVWKIPERSGAGTEDSACIPWAYYSTVDQVKDLYSGLIGPLIVCRRPYLKVFNPRRKLEFALLFLVFDENESWYLDDNIKTYSDHPEKVNKDDEEFIESNKMHAINGRMFGNLQGLTMHVGDEVNWYLMGMGNEIDLHTVHFHGHSFQYKHRGVYSSDVFDIFPGTYQTLEMFPRTPGIWLLHCHVTDHIHAGMETTYTVLQNEDTKSG
Consider B2, for which the “activity of the CP fraction separated from SDF” value with HL-60 cells [1] (CP fraction eluted at about 40% acetonitrile from RP-HPLC Resource column) is given as “devoid of activity”.
